# In publication PMC11109052, “Metabolism characterization and toxicity of N-hydap, a marine candidate drug for lung cancer therapy by LC–MS method” (Natural Products and Bioprospecting, 2024):
# Key:
# [1] = Metabolic stability in HLMs, UGT reaction (glucuronidation); assay type: in vitro ADME, human; settings: human, human liver microsomes (UGT reaction), pH 7.4, HLMs, UGT reaction
# Experimental: (§1) Various microsomes including HLMs, HKMs, HIMs, RLMs, RKMs, MLMs and MKMs were involved in CYP and UGT reactions of N-hydap. A typical CYP incubation mixture included 0.5 mg/mL microsomes protein, 3.3 mM glucose-6-phosphate, 3.3 mM MgCl2, 0.4 U/mL glucose-6-phosphate dehydrogenase, and N-hydap (1, 2.5, or 10 μM) in the 50 mM potassium phosphate buffer (KPI, pH 7.4). The incubation mixture was preincubated at 37 °C for 5 min, and the reaction was started by adding NADP to form a NADPH-regenerating system. Simultaneously, the classic UGT reaction system consisted of 50 mM KPI, 5 mM MgCl2, 0.5 mg/mL microsomes, 0.125 mg/mL alamethicin, and 5.25 mg/mL saccharolactone. The reaction was initiated after supplying UDPGA. The CYP and UGT mixtures were incubated at 37 °C in a shaking water bath (80 rpm) for 1.5 h to enhance metabolite formation. To terminate the reaction, an ice-cold solution of Tes (50 ng/mL, dissolved in methanol and used as an internal standard) was added to half of the mixture volume. The mixture was vortexed for 30 s and then centrifuged at 13,000 rpm for 15 min to eliminate any precipitated protein. The resulting supernatant was transferred to autosampler vials, and 5 μL was injected into the LC–MS system. All reactions were conducted in triplicate.
# (§2) The identical concentration of HLMs was utilized for both the CYP reaction and UGT reaction. At predetermined time intervals of 0, 15, 30, and 60 min, 100 µL samples were taken from the reaction volumes. To halt the reaction, 50 µL of 50 ng/mL Tes was added. Samples were analyzed using LC–MS to compare the remaining level of N-hydap between the CYP reaction and UGT reaction. T1/2 and CLint (in vivo) (mL/min/kg) were calculated as reported previously:
# (§3) T1/2=0.693/k, where k represents the slope of the line derived from plotting the natural logarithm of the percentage (Ln %) of N-hydap remaining in the reaction mixture against the incubation time (minutes).
# (§4) CLintinvivo=0.693/invitroT1/2×mLincubation/mgmicrosomes×45mgmicrosomes/gliver×20gliver/kgbodyweight.
# HLMs (UGT reaction) = assay: as above; assay type: in vitro ADME, human; settings: for percentage of N-hydap remaining: HLMs, glucuronidation reaction
# Experimental: as §1, §2, §3, §4
# Cyp1a2 = assay: Western blot protein level after 7 days gavage: CYP1A2; assay type: in vivo, mice; parameters: key to CYP1A2 Protein expression: ↑: up-regulation; ↓: down-regulation; –: no change
# Experimental: (§5) Mice were randomly divided into four groups, with eight animals in each group. The mice received oral pretreatment with N-hydap for 7 days at doses of 2, 5, and 10 mg/kg/day, which were considered as the low dose, medium dose, and high dose, respectively. Correspondingly, the control group received PBS. On the 8th day, the liver and kidneys were removed, and organs from eight mice per group were combined to prepare MLMs and MKMs using the detailed procedures above. Subsequently, we determined the activity of CYP and UGT enzymes by specific substrate metabolized with MLMs (0.5 mg/mL) and MKMs (0.2 mg/mL) in vitro. Specifically, the following selective substrates were used for the respective enzymes: PH (1 μM) for CYP1A2, DIC (1 μM) for CYP2C9, MP (90 μM) for CYP2C19, DM (1 μM) for CYP2D6, CZX (10 μM) for CYP2E1, Tes (1 μM) for CYP3A4, SN38 (1 μM) for UGT1A1, CACD (100 μM) for UGT1A3, Sero (20 μM) for UGT1A6, and Prop (1 μM) for UGT1A9. All substrates were dissolved in methanol or DMSO. The incubation procedure was carried out as mentioned above, and the reaction was terminated with VER (20 ng/mL) in ESI+ mode and CLP (200 ng/mL) in ESI− mode. In the ex vivo experiments, the activity of enzymes was measured by quantifying the production of various metabolites (nM/mg protein/min). The metabolites and their corresponding enzymes are as follows: APAP from PH, 4-OH-DIC from DIC, 4-OH-MP from MP, DXO from DM, 6-OH-CZX from CZX, 6-OH-Tes from Tes, SN38-G from SN38, CACD-G from CACD, Sero-G from Sero, Prop-G from Prop. The measurements were performed using multiple reaction monitoring (MRM) transitions, which are specific mass spectrometry transitions used for quantification. […]
# After 7 days of N-hydap gavage, the liver and kidney tissues were lysed using RIPA buffer supplemented with a 1% protease inhibitor cocktail. […] Western blot signals were detected using an ECL chemiluminescence detection agent. The relative intensity of each protein band was scanned and quantified using Image J software.
# CYP2C9 = assay: DME activity ex vivo in MLMs and MKMs: CYP2C9 (4-OH-DIC from DIC); settings: liver microsomes of mice pretreated 7 days p.o.
# Experimental: as §5, with “The incubation procedure was carried out as mentioned above, and the reaction was terminated with VER (20 ng/mL) in ESI+ mode and CLP (200 ng/mL) in ESI− mode.” left out, “The metabolites and their corresponding enzymes are as follows: APAP from PH, 4-OH-DIC from DIC, 4-OH-MP from MP, DXO from DM, 6-OH-CZX from CZX, 6-OH-Tes from Tes, SN38-G from SN38, CACD-G from CACD, Sero-G from Sero, Prop-G from Prop.” left out
# [2] = Metabolic stability in HLMs, CYP reaction; assay type: in vitro ADME, human; settings: human, human liver microsomes (CYP reaction), pH 7.4, HLMs, CYP reaction
# Experimental: as §1, §2, §3, §4
# HLMs (CYP reaction) = assay: Metabolic stability in HLMs, CYP reaction; assay type: in vitro ADME, human; settings: for remaining percentage of N-hydap: HLMs, CYP reaction
# Experimental: as §1, §2, §3, §4
# [3] = extrapolated from in vitro T1/2, read-out: CLint (in vivo)
structure (smiles),measurement,setting,value
"CC1CCC2C(C=CC(C)C2C(=O)c2c(O)c(C3(O)CCC(O)C4OC43)cn(O)c2=O)C1 (stereo not shown) [N-hydap, N-Hydroxyapiosporamide]",half-life,[1],2.16 h
same,CLint scaled,[1]; [3],48.2 mL/min/kg
same,percentage of N-hydap remaining,HLMs (UGT reaction); 15 min,47.84%
same,percentage of N-hydap remaining,HLMs (UGT reaction); 30 min,40.44%
same,"UGT catelyzed, experimental results",HLMs (UGT reaction); Table 4 experimental column,Yes
same,"Phase II metabolism, experimental results","HLMs (UGT reaction); Table 4 experimental column, microsomes",Glucuronidation
same,eliminated by UGTs,"HLMs (UGT reaction); various microsomes, after 1 h",~70%
same,CYP1A2 Protein expression,Cyp1a2; Kidney,↑
same,up-regulation of protein levels of CYP1A2,"Cyp1a2; mice, 10 mg/kg p.o. 7 days, kidney",117%
same,decrease of protein levels of CYP1A2,"Cyp1a2; mice, p.o. 7 days, liver",68%
same,reduction of formation rate of 4-OH-DIC vs control,CYP2C9,70%
same,half-life,[2],2.98 h
same,CLint scaled,[2]; [3],34.9 mL/min/kg
same,remaining percentage of N-hydap,HLMs (CYP reaction); 15 min,64.43%
same,remaining percentage of N-hydap,HLMs (CYP reaction); 30 min,58.02%
same,eliminated by CYPs,"HLMs (CYP reaction); various microsomes, after 1 h",about 50%
